Experiments:
late watergrass = test: Test Example 1: herbicidal activity, application before weed generation under submerged conditions (Table 16, symbol A); type: in vivo, late watergrass (Echinochloa oryzicola)
How it was run: (§1)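 Alluvial soil was flooded to 4 cm depth, weed seeds were sown mixed and 2.5-leaf rice seedlings were transplanted. On sowing day, the compound's emulsion, diluted in water to a set dose, was applied to the water surface. Plants grew at 25–30 °C and were scored 0–5 after three weeks.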

Japanese bulrush = test: Test Example 1: herbicidal activity, application before weed generation under submerged conditions (Table 16, symbol B); type: in vivo, Japanese bulrush (Schoenoplectus juncoides)
How it was run: as §1

oval-leafed pondweed = test: Test Example 1: herbicidal activity, application before weed generation under submerged conditions (Table 16, symbol C); type: in vivo, oval-leafed pondweed (Monochoria vaginalis)
How it was run: as §1

barnyard grass [1] = test: Test Example 3: herbicidal effect by foliage application, Wagner pot (Table 18, symbol H); type: in vivo, barnyard grass (Echinochloa crus-galli); conditions: amount of applied herbicide 320 g/ha
How it was run: (§2)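 Plants were sown in alluvial soil held under 0.1–0.5 cm standing water and grown 14 days in a greenhouse at 25–30 °C. An emulsifiable formulation, water-diluted to the set dose, was then sprayed onto the foliage, and effects were scored three weeks later using previously defined criteria.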

Chinese sprangletop = test: Test Example 3: herbicidal effect by foliage application, Wagner pot (Table 18, symbol D); type: in vivo, chinese sprangletop (Leptochloa chinensis); conditions: amount of applied herbicide 320 g/ha
How it was run: as §2

rice flat sedge = test: Test Example 3: herbicidal effect by foliage application, Wagner pot (Table 18, symbol E); type: in vivo, rice flat sedge (Cyperus iria); conditions: amount of applied herbicide 320 g/ha
How it was run: as §2

southern crabgrass [2] = test: Test Example 4: herbicidal effect by soil treatment (Table 19, symbol F); type: in vivo, southern crabgrass (Digitaria ciliaris); conditions: amount of applied herbicide 320 g/ha
How it was run: (§3)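 Scoring uses the grading scale of an earlier test, three weeks post-application. Treatment consists of spraying a diluted emulsion formulation across the surface of sterilized diluvial soil in which seeds are buried near 1.5 cm deep; boxes are kept in a greenhouse between 25° C. and 30° C.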

green foxtail [3] = test: Test Example 4: herbicidal effect by soil treatment (Table 19, symbol G); type: in vivo, green foxtail (Setaria viridis); conditions: amount of applied herbicide 320 g/ha
How it was run: as §3

barnyard grass [4] = test: Test Example 4: herbicidal effect by soil treatment (Table 19, symbol H); type: in vivo, barnyard grass (Echinochloa crus-galli); conditions: amount of applied herbicide 320 g/ha
How it was run: as §3

wild oat [5] = test: Test Example 4: herbicidal effect by soil treatment (Table 19, symbol I); type: in vivo, wild oat (Avena fatua); conditions: amount of applied herbicide 320 g/ha
How it was run: as §3

blackgrass [6] = test: Test Example 4: herbicidal effect by soil treatment (Table 19, symbol J); type: in vivo, blackgrass (Alopecurus myosuroides); conditions: amount of applied herbicide 320 g/ha
How it was run: as §3

Italian ryegrass [7] = test: Test Example 4: herbicidal effect by soil treatment (Table 19, symbol K); type: in vivo, Italian ryegrass (Lolium multiflorum); conditions: amount of applied herbicide 320 g/ha
How it was run: as §3

windgrass [8] = test: Test Example 4: herbicidal effect by soil treatment (Table 19, symbol L); type: in vivo, windgrass (Apera spica-venti); conditions: amount of applied herbicide 320 g/ha
How it was run: as §3

velvetleaf [9] = test: Test Example 4: herbicidal effect by soil treatment (Table 19, symbol M); type: in vivo, velvetleaf (Abutilon theophrasti); conditions: amount of applied herbicide 320 g/ha
How it was run: as §3

redroot pigweed = test: Test Example 4: herbicidal effect by soil treatment (Table 19, symbol N); type: in vivo, redroot pigweed (Amaranthus retroflexus); conditions: amount of applied herbicide 320 g/ha
How it was run: as §3

lambsquarters [10] = test: Test Example 4: herbicidal effect by soil treatment (Table 19, symbol O); type: in vivo, lambsquarters (Chenopodium album); conditions: amount of applied herbicide 320 g/ha
How it was run: as §3

chickweed [11] = test: Test Example 4: herbicidal effect by soil treatment (Table 19, symbol P); type: in vivo, common chickweed (Stellaria media); conditions: amount of applied herbicide 320 g/ha
How it was run: as §3

persian speedwell [12] = test: Test Example 4: herbicidal effect by soil treatment (Table 19, symbol R); type: in vivo, Persian speedwell (Veronica persica); conditions: amount of applied herbicide 320 g/ha
How it was run: as §3

southern crabgrass [13] = test: Test Example 5: herbicidal effect by foliage application, plastic box (Table 20, symbol F); type: in vivo, southern crabgrass (Digitaria ciliaris); conditions: foliage application, 320 g/ha
How it was run: (§4)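 Post-emergence foliar test in sterilized diluvial soil. Compound applied as water-diluted emulsion at a predetermined rate to 14-day-old plants; evaluation at three weeks.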

green foxtail [14] = test: Test Example 5: herbicidal effect by foliage application, plastic box (Table 20, symbol G); type: in vivo, green foxtail (Setaria viridis); conditions: foliage application, 320 g/ha
How it was run: as §4

barnyard grass [15] = test: Test Example 5: herbicidal effect by foliage application, plastic box (Table 20, symbol H); type: in vivo, barnyard grass (Echinochloa crus-galli); conditions: foliage application, 320 g/ha
How it was run: as §4

wild oat [16] = test: Test Example 5: herbicidal effect by foliage application, plastic box (Table 20, symbol I); type: in vivo, wild oat (Avena fatua); conditions: foliage application, 320 g/ha
How it was run: as §4

blackgrass [17] = test: Test Example 5: herbicidal effect by foliage application, plastic box (Table 20, symbol J); type: in vivo, blackgrass (Alopecurus myosuroides); conditions: foliage application, 320 g/ha
How it was run: as §4

Italian ryegrass [18] = test: Test Example 5: herbicidal effect by foliage application, plastic box (Table 20, symbol K); type: in vivo, Italian ryegrass (Lolium multiflorum); conditions: foliage application, 320 g/ha
How it was run: as §4

windgrass [19] = test: Test Example 5: herbicidal effect by foliage application, plastic box (Table 20, symbol L); type: in vivo, windgrass (Apera spica-venti); conditions: foliage application, 320 g/ha
How it was run: as §4

velvetleaf [20] = test: Test Example 5: herbicidal effect by foliage application, plastic box (Table 20, symbol M); type: in vivo, velvetleaf (Abutilon theophrasti); conditions: foliage application, 320 g/ha
How it was run: as §4

lambsquarters [21] = test: Test Example 5: herbicidal effect by foliage application, plastic box (Table 20, symbol O); type: in vivo, lambsquarters (Chenopodium album); conditions: foliage application, 320 g/ha
How it was run: as §4

chickweed [22] = test: Test Example 5: herbicidal effect by foliage application, plastic box (Table 20, symbol P); type: in vivo, common chickweed (Stellaria media); conditions: foliage application, 320 g/ha, evaluated three weeks after application
How it was run: as §4

persian speedwell [23] = test: Test Example 5: herbicidal effect by foliage application, plastic box (Table 20, symbol R); type: in vivo, Persian speedwell (Veronica persica); conditions: foliage application, 320 g/ha
How it was run: as §4

[24] = evaluated three weeks after application
[25] = amount of applied herbicide 320 g/ha

CCCOc1ccc2sc(-c3ccc(F)cc3OC)c(-c3c(O)c(C)nn(C)c3=O)c2c1 [2-173]
Herbicidal effect on A: late watergrass (grade 0-5) (late watergrass; 320 g/ha applied herbicide): 2 (Herbicidal rate of 20% or more and less than 40%) | Herbicidal effect on B: Japanese bulrush (grade 0-5) (Japanese bulrush; 320 g/ha applied herbicide): 0 (Herbicidal rate of 5% or less (almost no effect)) | Herbicidal effect on C: oval-leafed pondweed (grade 0-5) (oval-leafed pondweed; 320 g/ha applied herbicide): 0 (Herbicidal rate of 5% or less (almost no effect)) | herbicidal effect on H: barnyard grass (barnyard grass [1]): 3 (Herbicidal rate of 40% or more and less than 70%) | herbicidal effect on D: Chinese sprangletop (Chinese sprangletop): 2 (Herbicidal rate of 20% or more and less than 40%) | herbicidal effect on E: rice flat sedge (rice flat sedge): 2 (Herbicidal rate of 20% or more and less than 40%) | F: southern crabgrass, herbicidal effect rating (southern crabgrass [2]): 0 (Herbicidal rate of 5% or less (almost no effect)) | G: green foxtail, herbicidal effect rating (green foxtail [3]): 0 (Herbicidal rate of 5% or less (almost no effect)) | H: barnyard grass, herbicidal effect rating (barnyard grass [4]): 0 (Herbicidal rate of 5% or less (almost no effect)) | I: wild oat, herbicidal effect rating (wild oat [5]): 0 (Herbicidal rate of 5% or less (almost no effect)) | J: blackgrass, herbicidal effect rating (blackgrass [6]): 0 (Herbicidal rate of 5% or less (almost no effect)) | K: Italian ryegrass, herbicidal effect rating (Italian ryegrass [7]): 0 (Herbicidal rate of 5% or less (almost no effect)) | L: windgrass, herbicidal effect rating (windgrass [8]): 0 (Herbicidal rate of 5% or less (almost no effect)) | M: velvetleaf, herbicidal effect rating (velvetleaf [9]): 0 (Herbicidal rate of 5% or less (almost no effect)) | N: redroot pigweed, herbicidal effect rating (redroot pigweed): 0 (Herbicidal rate of 5% or less (almost no effect)) | O: lambsquarters, herbicidal effect rating (lambsquarters [10]): 0 (Herbicidal rate of 5% or less (almost no effect)) | P: chickweed, herbicidal effect rating (chickweed [11]): 3 (Herbicidal rate of 40% or more and less than 70%) | R: persian speedwell, herbicidal effect rating (persian speedwell [12]): 0 (Herbicidal rate of 5% or less (almost no effect)) | herbicidal effect on F: southern crabgrass (criteria 0-5) (southern crabgrass [13]; [24]): 0 (Herbicidal rate of 5% or less (almost no effect)) | herbicidal effect on G: green foxtail (criteria 0-5) (green foxtail [14]; [24]): 0 (Herbicidal rate of 5% or less (almost no effect)) | herbicidal effect on H: barnyard grass (criteria 0-5) (barnyard grass [15]; [24]): 0 (Herbicidal rate of 5% or less (almost no effect)) | herbicidal effect on I: wild oat (criteria 0-5) (wild oat [16]; [24]): 0 (Herbicidal rate of 5% or less (almost no effect)) | herbicidal effect on J: blackgrass (criteria 0-5) (blackgrass [17]; [24]): 4 (Herbicidal rate of 70% or more and less than 90%) | herbicidal effect on K: Italian ryegrass (criteria 0-5) (Italian ryegrass [18]; [24]): 0 (Herbicidal rate of 5% or less (almost no effect)) | herbicidal effect on L: windgrass (criteria 0-5) (windgrass [19]; [24]): 4 (Herbicidal rate of 70% or more and less than 90%) | herbicidal effect on M: velvetleaf (criteria 0-5) (velvetleaf [20]; [24]): 0 (Herbicidal rate of 5% or less (almost no effect)) | herbicidal effect on O: lambsquarters (criteria 0-5) (lambsquarters [21]; [24]): 1 (Herbicidal rate of 5% or more and less than 20%) | herbicidal effect on P: chickweed (criteria 0-5) (chickweed [22]): 5 (Herbicidal rate of 90% or more (almost completely withered)) | herbicidal effect on R: persian speedwell (criteria 0-5) (persian speedwell [23]; [24]): 5 (Herbicidal rate of 90% or more (almost completely withered))

COc1ccccc1-c1oc2ccc(F)cc2c1-c1c(O)c(C)nn(C)c1=O [9-019]
Herbicidal effect, A: late watergrass (late watergrass; [25]): 3 (Herbicidal rate of 40% or more and less than 70%) | Herbicidal effect, B: Japanese bulrush (Japanese bulrush; [25]): 0 (Herbicidal rate of 5% or less (almost no effect)) | Herbicidal effect, C: oval-leafed pondweed (oval-leafed pondweed; [25]): 0 (Herbicidal rate of 5% or less (almost no effect)) | Herbicidal effect on H (barnyard grass), foliage application (barnyard grass [1]): 4 (Herbicidal rate of 70% or more and less than 90%) | Herbicidal effect on D (Chinese sprangletop), foliage application (Chinese sprangletop): 4 (Herbicidal rate of 70% or more and less than 90%) | Herbicidal effect on E (rice flat sedge), foliage application (rice flat sedge): 4 (Herbicidal rate of 70% or more and less than 90%) | F: southern crabgrass, herbicidal effect grade (southern crabgrass [2]): 0 (Herbicidal rate of 5% or less (almost no effect)) | G: green foxtail, herbicidal effect grade (green foxtail [3]): 0 (Herbicidal rate of 5% or less (almost no effect)) | H: barnyard grass, herbicidal effect grade (barnyard grass [4]): 0 (Herbicidal rate of 5% or less (almost no effect)) | I: wild oat, herbicidal effect grade (wild oat [5]): 0 (Herbicidal rate of 5% or less (almost no effect)) | J: blackgrass, herbicidal effect grade (blackgrass [6]): 0 (Herbicidal rate of 5% or less (almost no effect)) | K: Italian ryegrass, herbicidal effect grade (Italian ryegrass [7]): 1 (Herbicidal rate of 5% or more and less than 20%) | L: windgrass, herbicidal effect grade (windgrass [8]): 0 (Herbicidal rate of 5% or less (almost no effect)) | M: velvetleaf, herbicidal effect grade (velvetleaf [9]): 0 (Herbicidal rate of 5% or less (almost no effect)) | N: redroot pigweed, herbicidal effect grade (redroot pigweed): 2 (Herbicidal rate of 20% or more and less than 40%) | O: lambsquarters, herbicidal effect grade (lambsquarters [10]): 1 (Herbicidal rate of 5% or more and less than 20%) | P: chickweed, herbicidal effect grade (chickweed [11]): 0 (Herbicidal rate of 5% or less (almost no effect)) | R: persian speedwell, herbicidal effect grade (persian speedwell [12]): 0 (Herbicidal rate of 5% or less (almost no effect)) | herbicidal effect on southern crabgrass (F) (southern crabgrass [13]; three weeks after application): 0 (Herbicidal rate of 5% or less (almost no effect)) | herbicidal effect on green foxtail (G) (green foxtail [14]; three weeks after application): 0 (Herbicidal rate of 5% or less (almost no effect)) | herbicidal effect on barnyard grass (H) (barnyard grass [15]; three weeks after application): 0 (Herbicidal rate of 5% or less (almost no effect)) | herbicidal effect on wild oat (I) (wild oat [16]; three weeks after application): 0 (Herbicidal rate of 5% or less (almost no effect)) | herbicidal effect on blackgrass (J) (blackgrass [17]; three weeks after application): 0 (Herbicidal rate of 5% or less (almost no effect)) | herbicidal effect on Italian ryegrass (K) (Italian ryegrass [18]; three weeks after application): 0 (Herbicidal rate of 5% or less (almost no effect)) | herbicidal effect on windgrass (L) (windgrass [19]; three weeks after application): 0 (Herbicidal rate of 5% or less (almost no effect)) | herbicidal effect on velvetleaf (M) (velvetleaf [20]; three weeks after application): 0 (Herbicidal rate of 5% or less (almost no effect)) | herbicidal effect on lambsquarters (O) (lambsquarters [21]; three weeks after application): 0 (Herbicidal rate of 5% or less (almost no effect)) | herbicidal effect on persian speedwell (R) (persian speedwell [23]; three weeks after application): 4 (Herbicidal rate of 70% or more and less than 90%)

From US20230085307A1, “PYRIDAZINONE COMPOUND AND HERBICIDE” (NISSAN CHEMICAL CORPORATION, priority 2019, published 2023)
